Laboratory results taken from patent US20260263555A1, “ANNEXIN A1 DELAYED DOSING” (Reso Ther Pharma A/S, priority 2023, published 2026).
Entries after “also recorded” stand apart in the source; their conditions may differ. No end group written: not given here.

Key:
[1] = system: rat model of acute myocardial infarction; assay: Delayed Annexin A1 peptide dosing in a rat model of acute myocardial infarction (30 minutes ischemia, 24 hours reperfusion; Evans blue/TTC infarct size); format: in vivo, Sprague Dawley rats; settings: vs vehicle
Method: Myocardial infarction was induced by 30 minutes ischemia via obstruction of coronary perfusion by occlusion of the left coronary artery followed by 24 hours reperfusion. Sprague Dawley rats were treated by administration with Peptide 1 (30 ug/kg) three times with treatment initiation either at the time of reperfusion (T0 h, T3 h, T6 h) (Group 1), or with a delayed treatment initiation starting either at 1 hour post establishment of reperfusion (T1 h, T4 h, T7 h) (Group 2), or at 2 hours post establishment of reperfusion (T2 h, T5 h, T8 h) (Group 3).
At the end of 24 hours reperfusion period, the left coronary artery was reoccluded and Evans blue dye solution injected. Hearts were excised from the rat and stored at −20° C. before being sliced into 1 mm thick transverse sections. Heart sections were incubated with triphenyltetrazolium chloride (TTC, 1%) at 37° C. for 30 minutes to demarcate the viable and nonviable myocardium within the risk zone. Area at risk and infarcted area were determined using image software.

[2] = system: recruitment of neutrophils to the site of injury/inflammation; settings: models of myocardial I/R, mesentery I/R, glycogen peritonitis and IL1 air pouch; cited from earlier work

Q: For “AMVSEFLKQAWFIENEEQEYVQTLKSSKGGPGSAVSPYPTFNPSSDV (AMVSEFLKQAWFIENEEQEYVQTLKSSKGGPGSAVSPYPTFNPSSDV-NH2; ends and bridges not checked) [Peptide 1]”, which infarct size ([1]; Group 1: 30 ug/kg three times (T0 h, T3 h, T6 h), first dosage at establishment of reperfusion) is on record?
A: significantly reduced infarct size

Q: And the infarct size ([1]; Group 2: 30 ug/kg three times (T1 h, T4 h, T7 h), first dosage 1 hour post establishment of reperfusion)?
A: reduced infarct size to a similar degree; also recorded: significantly reduced infarct size

Q: And the infarct size ([1]; Group 3: 30 ug/kg three times (T2 h, T5 h, T8 h), first dosage 2 hours post establishment of reperfusion)?
A: reduced infarct size to a similar degree; also recorded: significantly reduced infarct size

Q: Which “recruitment of neutrophils to the site of injury/inflammation” value [2] does the source give for “Ac2-26: Annexin A1 peptide which mimics the 2nd to the 26th amino acids of the 54-amino acid N-terminal region (Ac-AMVSEFLKQAWFIENEEQEYVQTVK; UniProt P04083 2-26, looked up, fragment)” here?
A: significantly reduce the recruitment of neutrophils
